# Measurements as given in patent US20240217957A1, “HETEROCYCLIC COMPOUND AND USE THEREOF” (TAKEDA PHARMACEUTICAL COMPANY LIMITED, priority 2022, published 2024).
# Molecular target: T1, human OX2 receptor (Homo sapiens, UniProt O43614)
# T1 construct: expressed in transfected cells
# T1 sequence (O43614 1-444): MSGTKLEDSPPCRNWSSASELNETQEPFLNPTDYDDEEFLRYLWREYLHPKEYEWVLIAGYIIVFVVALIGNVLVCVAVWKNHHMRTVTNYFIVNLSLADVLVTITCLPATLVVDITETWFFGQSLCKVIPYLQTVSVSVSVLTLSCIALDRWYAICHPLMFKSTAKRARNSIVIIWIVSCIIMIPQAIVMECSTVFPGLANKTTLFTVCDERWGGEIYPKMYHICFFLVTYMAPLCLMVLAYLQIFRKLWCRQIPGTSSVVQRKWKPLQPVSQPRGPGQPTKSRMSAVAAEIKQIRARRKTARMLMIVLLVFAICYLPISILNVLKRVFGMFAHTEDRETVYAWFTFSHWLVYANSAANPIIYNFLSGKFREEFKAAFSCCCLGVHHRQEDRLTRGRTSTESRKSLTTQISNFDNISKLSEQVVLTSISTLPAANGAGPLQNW
# Assay: Measurement of orexin type 2 receptor agonist activity (calcium fluorescence, Fluo-4 AM, FDSS)
# Type: cell-based
# Settings: compound at 3 μM; CHO cells forcibly expressing human OX2 receptor; DMSO = 0%, 10 nM orexin A (human) = 100%
# Procedure, shortened: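 CHO-K1 cells stably expressing human OX2 receptor (residues 1-444) loaded with Fluo-4 AM in HBSS/20 mM HEPES/0.1% BSA with probenecid, 30 min at 37° C. then 30 min at room temperature. After compound addition, calcium fluorescence read for 1 min 40 s; activity (%) scaled to DMSO (0%) and 10 nM orexin A (100%).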
row,Compound,"OX2R agonist activity (3 μM, %)"
1,"Cc1cnc([C@@H]2CC(N3C[C@H](F)[C@H](NS(C)(=O)=O)C3)=NO2)c(-c2c(F)cc(F)cc2F)c1 [Example 57, N-[(3R,4S)-4-fluoro-1-{(5S)-5-[5-methyl-3-(2,4,6-trifluorophenyl)pyridin-2-yl]-4,5-dihydro-1,2-oxazol-3-yl}pyrrolidin-3-yl]methanesulfonamide]",105%
2,"CCS(=O)(=O)N[C@@H]1CN(C2=NOC(c3ncc(F)cc3-c3c(F)cc(F)cc3F)C2)CC1(F)F (stereo partly drawn) [Example 34, N-[(3R)-4,4-difluoro-1-{5-[5-fluoro-3-(2,4,6-trifluorophenyl)pyridin-2-yl]-4,5-dihydro-1,2-oxazol-3-yl}pyrrolidin-3-yl]ethanesulfonamide]",105%
3,"COCC1(NS(C)(=O)=O)CCN(C2=NO[C@H](c3ncc(C)cc3-c3c(F)cccc3F)C2)C1 (stereo partly drawn) [Example 73, N-[1-{(5S)-5-[3-(2,6-difluorophenyl)-5-methylpyridin-2-yl]-4,5-dihydro-1,2-oxazol-3-yl}-3-(methoxymethyl)pyrrolidin-3-yl]methanesulfonamide]",102%
4,"Cc1cn(-c2c(F)cccc2F)c(C2(C)CC(N3C[C@@H](NS(C)(=O)=O)C(F)(F)C3)=NO2)n1 (stereo partly drawn) [Example 12, N-[(3R)-1-{5-[1-(2,6-difluorophenyl)-4-methyl-1H-imidazol-2-yl]-5-methyl-4,5-dihydro-1,2-oxazol-3-yl}-4,4-difluoropyrrolidin-3-yl]methanesulfonamide]",71%
5,"Cc1cnc(C2CC(C3CC(NS(C)(=O)=O)C3)=NO2)c(-c2c(F)cc(F)cc2F)c1 (centres unmarked) [Example 23, N-[(1s,3s)-3-{5-[5-methyl-3-(2,4,6-trifluorophenyl)pyridin-2-yl]-4,5-dihydro-1,2-oxazol-3-yl}cyclobutyl]methanesulfonamide]",42%
6,"CS(=O)(=O)NC1CCN(C2=NOC(c3ccccc3-c3c(F)cccc3F)C2)CC1 (centres unmarked) [Example 7, N-{1-[5-(2′,6′-difluoro[1,1′-biphenyl]-2-yl)-4,5-dihydro-1,2-oxazol-3-yl]piperidin-4-yl}methanesulfonamide]",53%

# The next lines start with the values.
row,"OX2R agonist activity (3 μM, %)",Compound
1,99%,"Cc1cnc(C2(C)CC(N3C[C@H](F)[C@H](NS(C)(=O)=O)C3)=NO2)c(-c2c(F)cccc2F)c1 (stereo partly drawn) [Example 96, N-[(3R,4S)-1-{5-[3-(2,6-difluorophenyl)-5-methylpyridin-2-yl]-5-methyl-4,5-dihydro-1,2-oxazol-3-yl}-4-fluoropyrrolidin-3-yl]methanesulfonamide]"
2,100%,"CN(C)S(=O)(=O)N[C@@H]1CN(C2=NOC(c3ccc(Cl)cc3-c3ncc(F)cc3F)C2)C[C@@H]1F (stereo partly drawn) [Example 123, N′-[(3R,4S)-1-{5-[4-chloro-2-(3,5-difluoropyridin-2-yl)phenyl]-4,5-dihydro-1,2-oxazol-3-yl}-4-fluoropyrrolidin-3-yl]-N,N-dimethylsulfuric diamide]"
3,98%,"CS(=O)(=O)N[C@@H]1CN(C2=NOC(c3ncc(F)cc3-c3c(F)cccc3F)(C(F)F)C2)CC1(F)F (stereo partly drawn) [Example 126, N-[(3R)-1-{5-(difluoromethyl)-5-[3-(2,6-difluorophenyl)-5-fluoropyridin-2-yl]-4,5-dihydro-1,2-oxazol-3-yl}-4,4-difluoropyrrolidin-3-yl]methanesulfonamide]"
4,97%,"CS(=O)(=O)N[C@@H]1CN(C2=NOC(c3ncc(Cl)cc3-c3c(F)cc(F)cc3F)C2)C[C@@H]1F (stereo partly drawn) [Example 84, N-[(3R,4S)-1-{5-[5-chloro-3-(2,4,6-trifluorophenyl)pyridin-2-yl]-4,5-dihydro-1,2-oxazol-3-yl}-4-fluoropyrrolidin-3-yl]methanesulfonamide]"
5,98%,"O=S(=O)(CF)N[C@@H]1CN(C2=NOC(CF)(c3ncc(F)cc3-c3c(F)cc(F)cc3F)C2)C[C@@H]1F (stereo partly drawn) [Example 163, 1-fluoro-N-[(3R,4S)-4-fluoro-1-{5-(fluoromethyl)-5-[5-fluoro-3-(2,4,6-trifluorophenyl)pyridin-2-yl]-4,5-dihydro-1,2-oxazol-3-yl}pyrrolidin-3-yl]methanesulfonamide]"
